In brackets after ≈: the same amount, converted by molar mass. Activity calls are given as the source filed them. No cut-off for these calls is given here.
How the values were obtained:
Staphylococcus aureus [1] = assay: Antibacterial activity against methicillin-resistant Staphylococcus aureus EAMC30 assessed as growth inhibition using fresh sample in DMSO by CLSI method; format: functional, organism-based
Enterococcus faecalis [2] = assay: Bactericidal activity against Enterococcus faecalis ATCC 51299 using fresh sample in DMSO after 24 to 48 hrs by CLSI method; format: functional
[3] = Chemical stability in acetonitrile after 1 week by LC-MS analysis; format: physicochemical; conditions: 168 h
Staphylococcus aureus [4] = assay: Antibacterial activity against methicillin-resistant Staphylococcus aureus ATCC 33591 assessed as growth inhibition using fresh sample in DMSO by CLSI method; format: functional, organism-based
Enterococcus faecium [5] = assay: Antibacterial activity against vancomycin-resistant Enterococcus faecium ATCC 700221 assessed as growth inhibition using fresh sample in DMSO by CLSI method; format: functional, organism-based
Staphylococcus aureus [6] = assay: Bactericidal activity against methicillin-resistant Staphylococcus aureus ATCC 33591 using fresh sample in DMSO after 24 to 48 hrs by CLSI method; format: functional
Staphylococcus aureus [7] = assay: Antibacterial activity against Staphylococcus aureus ATCC 29213 assessed as growth inhibition using fresh sample in DMSO by CLSI method; format: functional, organism-based
Candida albicans = assay: Antifungal activity against Candida albicans ATCC 90028 at 20 ug/ml by CLSI method; format: functional, organism-based
Enterococcus faecalis [8] = assay: Bactericidal activity against Enterococcus faecalis ATCC 29212 using fresh sample in DMSO after 24 to 48 hrs by CLSI method; format: functional
Enterococcus faecium [9] = assay: Bactericidal activity against vancomycin-resistant Enterococcus faecium ATCC 700221 using fresh sample in DMSO at 20 ug/ml after 24 to 48 hrs by CLSI method; format: functional, organism-based
Enterococcus faecalis [10] = assay: Antibacterial activity against Enterococcus faecalis ATCC 29212 assessed as growth inhibition using fresh sample in DMSO by CLSI method; format: functional, organism-based
Enterococcus faecalis [11] = assay: Antibacterial activity against Enterococcus faecalis ATCC 51299 assessed as growth inhibition using fresh sample in DMSO by CLSI method; format: functional, organism-based
Staphylococcus aureus [12] = assay: Bactericidal activity against methicillin-resistant Staphylococcus aureus EAMC30 using fresh sample in DMSO after 24 to 48 hrs by CLSI method; format: functional
Staphylococcus aureus [13] = assay: Bactericidal activity against Staphylococcus aureus ATCC 29213 using fresh sample in DMSO after 24 to 48 hrs by CLSI method; format: functional
Staphylococcus aureus [14] = assay: Bactericidal activity against methicillin-resistant Staphylococcus aureus ATCC 33591 using fresh sample in DMSO at 100 ug/ml after 24 to 48 hrs by CLSI method; format: functional, organism-based
Staphylococcus aureus [15] = assay: Antibacterial activity against methicillin-resistant Staphylococcus aureus ATCC 33591 assessed as growth inhibition using fresh sample in DMSO at 100 ug/ml by CLSI method; format: functional, organism-based
Enterococcus faecalis [16] = assay: Bactericidal activity against Enterococcus faecalis ATCC 51299 using fresh sample in DMSO at 100 ug/ml after 24 to 48 hrs by CLSI method; format: functional, organism-based

SMILES	IC50 (Staphylococcus aureus [1])	MIC (Staphylococcus aureus [1])	MBC (Enterococcus faecalis [2])	IC50 (Staphylococcus aureus [4])	MIC (Staphylococcus aureus [4])	MBC (Staphylococcus aureus [6])	IC50 (Staphylococcus aureus [7])	MIC (Staphylococcus aureus [7])	MBC (Enterococcus faecalis [8])	IC50 (Enterococcus faecalis [10])	MIC (Enterococcus faecalis [10])	IC50 (Enterococcus faecalis [11])	MIC (Enterococcus faecalis [11])	MBC (Staphylococcus aureus [12])	MBC (Staphylococcus aureus [13])	further results
COc1cc(O)cc2c1C(=O)OC(CC(C)O)CC(O)C/C=C/C(O)CC(O)CC(O)C/C(C)=C/C=C/C=C/C=C/C=C/c1cc(O)cc(OC)c1C(=O)OC(CC(C)O)CC(O)C/C=C/C(O)CC(O)CC(O)C/C(C)=C/C=C/C=C/C=C/C=C/2 (configuration not stated)	< 0.02 µg/mL	0.6 µg/mL (≈ 0.501 µM)	1.2 µg/mL (≈ 1 µM)	0.04 µg/mL (≈ 0.0334 µM)	1.2 µg/mL (≈ 1 µM)	1.2 µg/mL (≈ 1 µM)	0.04 µg/mL (≈ 0.0334 µM)	1.2 µg/mL (≈ 1 µM)	2.5 µg/mL (≈ 2.09 µM)	0.2 µg/mL (≈ 0.167 µM)	0.6 µg/mL (≈ 0.501 µM)	0.2 µg/mL (≈ 0.167 µM)	0.6 µg/mL (≈ 0.501 µM)	0.6 µg/mL (≈ 0.501 µM)	2.5 µg/mL (≈ 2.09 µM)	Stability [3]: Unstable; IC50 (Enterococcus faecium [5]): 0.1 µg/mL (≈ 0.0835 µM); MIC (Enterococcus faecium [5]): 0.6 µg/mL (≈ 0.501 µM); Activity (Candida albicans): inactive; Activity (Enterococcus faecium [9]): inactive
COc1cccc(OC)c1C(=O)N[C@@H]1C(=O)N2[C@@H]1SC(C)(C)[C@@H]2C(=O)O [METHICILLIN]	10.1 µg/mL (≈ 26.5 µM)	50 µg/mL (≈ 131 µM)	50 µg/mL (≈ 131 µM)					3.1 µg/mL (≈ 8.15 µM)	50 µg/mL (≈ 131 µM)	15.3 µg/mL (≈ 40.2 µM)	25 µg/mL (≈ 65.7 µM)	14.2 µg/mL (≈ 37.3 µM)	50 µg/mL (≈ 131 µM)		12.5 µg/mL (≈ 32.9 µM)	Activity (Staphylococcus aureus [14]): inactive; growth inhibition (GI) (Staphylococcus aureus [15]): inactive
CN[C@H](CC(C)C)C(=O)N[C@H]1C(=O)N[C@@H](CC(N)=O)C(=O)N[C@H]2C(=O)N[C@H]3C(=O)N[C@H](C(=O)N[C@H](C(=O)O)c4cc(O)cc(O)c4-c4cc3ccc4O)[C@H](O)c3ccc(c(Cl)c3)Oc3cc2cc(c3O[C@@H]2O[C@H](CO)[C@@H](O)[C@H](O)[C@H]2O[C@H]2C[C@](C)(N)[C@H](O)[C@H](C)O2)Oc2ccc(cc2Cl)[C@H]1O [VANCOMYCIN]	0.2 µg/mL (≈ 0.138 µM)	0.4 µg/mL (≈ 0.276 µM)		0.8 µg/mL (≈ 0.552 µM)	1.6 µg/mL (≈ 1.1 µM)	1.6 µg/mL (≈ 1.1 µM)	0.7 µg/mL (≈ 0.483 µM)	1.6 µg/mL (≈ 1.1 µM)	50 µg/mL (≈ 34.5 µM)	1 µg/mL (≈ 0.69 µM)	1.6 µg/mL (≈ 1.1 µM)	3.4 µg/mL (≈ 2.35 µM)	6.2 µg/mL (≈ 4.28 µM)	0.4 µg/mL (≈ 0.276 µM)	50 µg/mL (≈ 34.5 µM)	Activity (Enterococcus faecalis [16]): inactive

From ChEMBL document CHEMBL3576782, “Bacillusin A, an Antibacterial Macrodiolide from Bacillus amyloliquefaciens AP183” (J Nat Prod, 2015)
